{"source": "patent US20260262643A1", "about": "“HERBICIDAL BENZOXAZINES” (FMC CORPORATION, priority 2022, published 2026)", "key": {"[1]": {"test_system": "oat, wild", "test": "Test C postemergence", "assay_type": "in vivo, Avena fatua", "settings": "10 days", "procedure,_shortened": "(§1)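 Pre: seeds in loam/sand, directed soil spray. Post: 1–2 leaf plants, 2–10 cm. Cmpd in non-phytotoxic solvent + surfactant. Greenhouse 10 d; visual rating vs untreated, 0 = none, 100 = complete control.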"}, "[2]": {"test_system": "barnyardgrass", "test": "Test C preemergence", "assay_type": "in vivo, Echinochloa crusgalli", "settings": "0 to 100 scale (0 no effect, 100 complete control)", "procedure,_shortened": "as §1"}, "[3]": {"test_system": "wheat", "test": "Test C preemergence", "assay_type": "in vivo, Triticum aestivum", "settings": "0 to 100 scale (0 no effect, 100 complete control)", "procedure,_shortened": "as §1"}, "[4]": {"test_system": "ragweed", "test": "Test C postemergence", "assay_type": "in vivo, Ambrosia artemisiifolia", "settings": "10 days", "procedure,_shortened": "as §1"}, "[5]": {"test_system": "pigweed, palmer", "test": "Test C preemergence", "assay_type": "in vivo, Amaranthus palmeri", "settings": "0 to 100 scale (0 no effect, 100 complete control)", "procedure,_shortened": "as §1"}, "[6]": {"test_system": "ryegrass, Italian", "test": "Test C preemergence", "assay_type": "in vivo, Lolium multiflorum", "settings": "0 to 100 scale (0 no effect, 100 complete control)", "procedure,_shortened": "as §1"}, "[7]": {"test_system": "barnyardgrass", "test": "Test C postemergence", "assay_type": "in vivo, Echinochloa crusgalli", "settings": "10 days", "procedure,_shortened": "as §1"}, "[8]": {"test_system": "horseweed", "test": "Test C postemergence", "assay_type": "in vivo, Erigeron canadensis", "settings": "10 days", "procedure,_shortened": "as §1"}, "[9]": {"test_system": "barnyardgrass", "test": "Test D flooded paddy test", "assay_type": "in vivo, Echinochloa crus-galli", "settings": "250 g ai/ha, applied to paddy water, visual rating after 13 to 14 days, scale 0 to 100 (0 no effect, 100 complete control)", "procedure,_shortened": "(§2)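 Compounds go straight into paddy water over 2-leaf plants in pots flooded to 3 cm. Greenhouse holding lasts 13 to 14 days. Injury is scored by eye against controls from 0 (none) to 100 (complete control).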"}, "[10]": {"test_system": "corn", "test": "Test C preemergence", "assay_type": "in vivo, Zea mays", "settings": "0 to 100 scale (0 no effect, 100 complete control)", "procedure,_shortened": "as §1"}, "[11]": {"test_system": "soybean", "test": "Test C preemergence", "assay_type": "in vivo, Glycine max", "settings": "0 to 100 scale (0 no effect, 100 complete control)", "procedure,_shortened": "as §1"}, "[12]": {"test_system": "corn", "test": "Test C postemergence", "assay_type": "in vivo, Zea mays", "settings": "10 days", "procedure,_shortened": "as §1"}, "[13]": {"test_system": "galium", "test": "Test C postemergence", "assay_type": "in vivo, Galium aparine", "settings": "125 g ai/ha, postemergence, 10 days; 0 to 100 scale, 0 no effect, 100 complete control", "procedure,_shortened": "as §1"}, "[14]": {"test_system": "soybean", "test": "Test C postemergence", "assay_type": "in vivo, Glycine max", "settings": "10 days", "procedure,_shortened": "as §1"}, "[15]": {"test_system": "sedge, umbrella", "test": "Test D flooded paddy test", "assay_type": "in vivo, Cyperus difformis", "settings": "250 g ai/ha, applied to paddy water, visual rating after 13 to 14 days, scale 0 to 100 (0 no effect, 100 complete control)", "procedure,_shortened": "as §2"}, "[16]": {"test_system": "ryegrass, Italian", "test": "Test C postemergence", "assay_type": "in vivo, Lolium multiflorum", "settings": "10 days", "procedure,_shortened": "as §1"}, "[17]": {"test_system": "rice", "test": "Test D flooded paddy test", "assay_type": "in vivo, Oryza sativa", "settings": "250 g ai/ha, applied to paddy water, visual rating after 13 to 14 days, scale 0 to 100 (0 no effect, 100 complete control)", "procedure,_shortened": "as §2"}, "[18]": {"test_system": "oat, wild", "test": "Test C preemergence", "assay_type": "in vivo, Avena fatua", "settings": "0 to 100 scale (0 no effect, 100 complete control)", "procedure,_shortened": "as §1"}, "[19]": {"test_system": "pigweed, palmer", "test": "Test C postemergence", "assay_type": "in vivo, Amaranthus palmeri", "settings": "10 days", "procedure,_shortened": "as §1"}, "[20]": {"test_system": "green foxtail", "test": "Test C postemergence", "assay_type": "in vivo, Setaria viridis", "settings": "10 days", "procedure,_shortened": "as §1"}, "[21]": {"test_system": "ragweed", "test": "Test C preemergence", "assay_type": "in vivo, Ambrosia artemisiifolia", "settings": "0 to 100 scale (0 no effect, 100 complete control)", "procedure,_shortened": "as §1"}, "[22]": {"test_system": "kochia", "test": "Test C postemergence", "assay_type": "in vivo, Bassia scoparia", "settings": "10 days", "procedure,_shortened": "as §1"}, "[23]": {"test_system": "ducksalad", "test": "Test D flooded paddy test", "assay_type": "in vivo, Heteranthera limosa", "settings": "250 g ai/ha, applied to paddy water, visual rating after 13 to 14 days, scale 0 to 100 (0 no effect, 100 complete control)", "procedure,_shortened": "as §2"}, "[24]": {"test_system": "green foxtail", "test": "Test C preemergence", "assay_type": "in vivo, Setaria viridis", "settings": "0 to 100 scale (0 no effect, 100 complete control)", "procedure,_shortened": "as §1"}, "[25]": {"test_system": "blackgrass", "test": "Test C postemergence", "assay_type": "in vivo, Alopecurus myosuroides", "settings": "10 days", "procedure,_shortened": "as §1"}, "[26]": {"test_system": "kochia", "test": "Test C preemergence", "assay_type": "in vivo, Bassia scoparia", "settings": "0 to 100 scale (0 no effect, 100 complete control)", "procedure,_shortened": "as §1"}, "[27]": {"test_system": "wheat", "test": "Test C postemergence", "assay_type": "in vivo, Triticum aestivum", "settings": "10 days", "procedure,_shortened": "as §1"}, "[28]": {"test_system": "blackgrass", "test": "Test C preemergence", "assay_type": "in vivo, Alopecurus myosuroides", "settings": "0 to 100 scale (0 no effect, 100 complete control)", "procedure,_shortened": "as §1"}, "[29]": {"settings": "125 g ai/ha, postemergence, 0 to 100 scale, 0 no effect, 100 complete control"}, "[30]": {"settings": "Postemergence, 500 g ai/ha, visual 0 to 100 scale (0 no effect, 100 complete control)"}, "[31]": {"settings": "Preemergence, 500 g ai/ha, visual rating after 10 days"}, "[32]": {"settings": "Test C, preemergence, 125 g ai/ha"}}}
{"smiles": "Cc1cc(-n2cnc(C(C)C)n2)cc(C(=O)N2C[C@H](C)Oc3c(Cl)cccc32)c1F", "note": "[Compound 223]", "values": [{"measurement": "Plant response rating, Oat, Wild", "setting": "[1]; [29]", "value": 10}, {"measurement": "Plant response rating, Oat, Wild", "setting": "[1]; [30]", "value": 30}, {"measurement": "Plant response rating, Barnyardgrass", "setting": "[2]; [31]", "value": 100}, {"measurement": "Barnyardgrass plant response rating", "setting": "[2]; [32]", "value": 90}, {"measurement": "Plant response rating, Wheat", "setting": "[3]; [31]", "value": 90}, {"measurement": "Wheat plant response rating", "setting": "[3]; [32]", "value": 20}, {"measurement": "Plant response rating, Ragweed", "setting": "[4]; [29]", "value": 0}, {"measurement": "Plant response rating, Ragweed", "setting": "[4]; [30]", "value": 10}, {"measurement": "Plant response rating, Pigweed, Palmer", "setting": "[5]; [31]", "value": 100}, {"measurement": "Pigweed, Palmer plant response rating", "setting": "[5]; [32]", "value": 100}, {"measurement": "Plant response rating, Ryegrass, Italian", "setting": "[6]; [31]", "value": 90}, {"measurement": "Ryegrass, Italian plant response rating", "setting": "[6]; [32]", "value": 80}, {"measurement": "Plant response rating, Barnyardgrass", "setting": "[7]; [29]", "value": 20}, {"measurement": "Plant response rating, Barnyardgrass", "setting": "[7]; [30]", "value": 40}, {"measurement": "Plant response rating, Horseweed", "setting": "[8]; [29]", "value": 20}, {"measurement": "Plant response rating, Horseweed", "setting": "[8]; [30]", "value": 30}, {"measurement": "Plant response rating, Barnyardgrass (Flood)", "setting": "[9]", "value": 10}, {"measurement": "Plant response rating, Corn", "setting": "[10]; [31]", "value": 40}, {"measurement": "Corn plant response rating", "setting": "[10]; [32]", "value": 0}, {"measurement": "Plant response rating, Soybean", "setting": "[11]; [31]", "value": 70}, {"measurement": "Soybean plant response rating", "setting": "[11]; [32]", "value": 10}, {"measurement": "Plant response rating, Corn", "setting": "[12]; [29]", "value": 20}, {"measurement": "Plant response rating, Corn", "setting": "[12]; [30]", "value": 80}, {"measurement": "Plant response rating, Galium", "setting": "[13]", "value": 100}, {"measurement": "Plant response rating, Soybean", "setting": "[14]; [29]", "value": 100}, {"measurement": "Plant response rating, Soybean", "setting": "[14]; [30]", "value": 100}, {"measurement": "Plant response rating, Sedge, Umbrella (Flood)", "setting": "[15]", "value": 95}, {"measurement": "Plant response rating, Ryegrass, Italian", "setting": "[16]; [29]", "value": 50}, {"measurement": "Plant response rating, Ryegrass, Italian", "setting": "[16]; [30]", "value": 90}, {"measurement": "Plant response rating, Rice (Flood)", "setting": "[17]", "value": 10}, {"measurement": "Plant response rating, Oat, Wild", "setting": "[18]; [31]", "value": 70}, {"measurement": "Oat, Wild plant response rating", "setting": "[18]; [32]", "value": 50}, {"measurement": "Plant response rating, Pigweed, Palmer", "setting": "[19]; [29]", "value": 80}, {"measurement": "Plant response rating, Pigweed, Palmer", "setting": "[19]; [30]", "value": 90}, {"measurement": "Plant response rating, Foxtail, Green", "setting": "[20]; [29]", "value": 30}, {"measurement": "Plant response rating, Foxtail, Green", "setting": "[20]; [30]", "value": 60}, {"measurement": "Plant response rating, Ragweed", "setting": "[21]; [31]", "value": 40}, {"measurement": "Ragweed plant response rating", "setting": "[21]; [32]", "value": 50}, {"measurement": "Plant response rating, Kochia", "setting": "[22]; [29]", "value": 90}, {"measurement": "Plant response rating, Kochia", "setting": "[22]; [30]", "value": 90}, {"measurement": "Plant response rating, Ducksalad (Flood)", "setting": "[23]", "value": 80}, {"measurement": "Plant response rating, Foxtail, Green", "setting": "[24]; [31]", "value": 100}, {"measurement": "Foxtail, Green plant response rating", "setting": "[24]; [32]", "value": 100}, {"measurement": "Plant response rating, Blackgrass", "setting": "[25]; [29]", "value": 30}, {"measurement": "Plant response rating, Blackgrass", "setting": "[25]; [30]", "value": 70}, {"measurement": "Plant response rating, Kochia", "setting": "[26]; [31]", "value": 80}, {"measurement": "Kochia plant response rating", "setting": "[26]; [32]", "value": 60}, {"measurement": "Plant response rating, Wheat", "setting": "[27]; [29]", "value": 10}, {"measurement": "Plant response rating, Wheat", "setting": "[27]; [30]", "value": 30}, {"measurement": "Plant response rating, Blackgrass", "setting": "[28]; [31]", "value": 90}, {"measurement": "Blackgrass plant response rating", "setting": "[28]; [32]", "value": 40}]}
